Reference: US20210106708A1, “THERMORESPONSIVE COMPOSITIONS AND METHODS FOR PREVENTING AND DISRUPTING BIOFILMS” (CASE WESTERN RESERVE UNIVERSITY, priority 2018, published 2021)
Entries after “also recorded” stand apart in the source; their conditions may differ. Counter-ions that a name gives are not always drawn.

Columns and labels:
S. aureus biofilms = assay: Biofilm dispersal assay (crystal violet stain); format: cell-based
Procedure: S. aureus were cultured overnight in agar plates or in lysogeny broth (LB) with agitation (200 rpm) at 37° C. Biofilm formation was evaluated under static conditions using 12-well plates (Falcon, USA). Bacterial cultures made overnight were diluted to an OD595 of 0.1 and further diluted 100× (˜10^5 CFU/mL) in modified tryptic soy broth (3% NaCl, 0.5% glucose) and each well was filled with 2 mL of the diluted bacterial solution and incubated at 37° C. for 24 h. Biofilm dispersal activities were evaluated by removing the culture media from the biofilms after 24 h and replacing it with saline solution (0.9% NaCl) containing either individual or a combination of amino acids at the specified concentrations (pH 7.4), or the other antimicrobial agents used in the clinic (vancomycin, bacitracin, NeutroPhase, Hibiclens). After exposure to the different treatment methods, the plates were gently washed with phosphate buffered saline (PBS, 1×) thrice and then stained with 500 μL of 0.1% (w/v) crystal violet for 30 min. The wells were then washed with PBS and the crystal violet stain was solubilized with 30% acetic acid. The solution was diluted 20 times and biofilm biomass was estimated by measuring the crystal violet stained biofilm remnants, which absorbs at 595 nm.

HeLa cells = assay: PrestoBlue cell viability assay; format: cell-based; conditions: 200 mM vancomycin; 2 and 24 h incubation; hydrochloride
Procedure: HeLa cells were cultured in Dulbecco's Modified Eagle Medium supplemented with 10% fetal bovine serum and 1% penicillin/streptomycin at 37° C. in 5% CO2 in a humidified atmosphere. The cells were seeded to 100% confluence in clear 96-well tissue culture plates (Costar, Corning, N.Y., USA) for 24 h. The cells were then exposed to the different treatments in media and incubated for the specified time. After treatment, the cells were washed in sterile phosphate buffered saline and incubated in 100 μL/well of DMEM (10% FBS, 1% penicillin/streptomycin). Cell viability was evaluated using the PrestoBlue assay (Invitrogen, USA), following the manufacturer's instructions. Briefly, 10 μL of PrestoBlue assay reagent was directly added to each well and the plates were incubated at the cell culture incubator (37° C. and 5% CO2) for 2 h. The absorbance at 570 and 600 nm were then measured using a SpectraMax i3 microplate reader (Molecular Device Inc., Sunnyvale, Calif.). All assays were performed in triplicates.

Structure (SMILES): CN[C@H](CC(C)C)C(=O)N[C@H]1C(=O)N[C@@H](CC(N)=O)C(=O)N[C@H]2C(=O)N[C@H]3C(=O)N[C@H](C(=O)N[C@H](C(=O)O)c4cc(O)cc(O)c4-c4cc3ccc4O)[C@H](O)c3ccc(c(Cl)c3)Oc3cc2cc(c3O[C@@H]2O[C@H](CO)[C@@H](O)[C@H](O)[C@H]2O[C@H]2C[C@](C)(N)[C@H](O)[C@H](C)O2)Oc2ccc(cc2Cl)[C@H]1O [vancomycin, vancomycin hydrochloride]
- biofilm disruption (S. aureus biofilms; 200 mM vancomycin, 24 h incubation): promising results
- biofilm disruption (S. aureus biofilms; 2 to 256 ppm, 24 h, preformed biofilms): do not disrupt preformed biofilms
- in vitro cytotoxicity (HeLa cells): extremely toxic; also recorded: extreme cell toxicity
